Results taken from patent US20090270312A1, “HIV-I GP41 FUSION PEPTIDES FOR IMMUNOMODULALTION” (priority 2005, published 2009).
Residues, ends and D or L forms follow the SMILES beside them.

Tests used:
lymph node cells (LNC) [1] = test: Cell survival in culture with peptide; assay type: cell-based, rat; details: cells incubated with peptide
lymph node cells (LNC) [2] = test: T-cell proliferation of mice LNC with MOG 35-55 peptide antigen; assay type: cell-based; details: MOG35-55 peptide
Lewis rats = test: Adjuvant Arthritis (AA); assay type: in vivo, rat; details: 100 μg peptide in IFA with Mt at AA induction
Experimental: Induction and Assessment of Adjuvant Arthritis (AA). To test the effect of FP on T-cell activation in vivo, AA was used as a model system. AA was induced by injecting 50 μl of Mt suspended in IFA (0.5 mg/ml) at the base of the tail. At the time of AA induction, each rat also received 100 μg of FP or control peptide, or PBS dissolved in 50 μl of IFA and mixed with Mt/IFA used to induce AA. The day of AA induction was designated as day 0. Disease severity was assessed by direct observation of all 4 limbs in each animal. A relative score between 0 and 4 was assigned to each limb, based on the degree of joint inflammation, redness and deformity; thus the maximum possible score for an individual animal was 16 (Quintana et al., 2002). The mean AA score (±SEM) is shown for each experimental group. Arthritis was also quantified by measuring hind limb diameter with a caliper. Measurements were taken on the day of the induction of AA and 26 days later (at the peak of AA); the results are presented as the mean±SEM of the difference between the two values for all the animals in each group. The person who scored the disease was blinded to the identity of the groups.
AA was induced in rats as indicated above; at the time of AA induction, each rat also received 100 μg of IFFA or PBS dissolved in 50 μl of IFA and mixed with Mt/IFA used to induce AA. Disease severity was assessed as described above.

LNC from injected rats = test: T cell immunity to the injected peptide: IFN-γ secretion of LNC incubated ex vivo with the same peptide; assay type: in vivo, rat
Excerpt: Cytokine assays. Supernatants were collected after 72 hr of stimulation, and rat IL-10 and IFNγ were quantified by enzyme-linked immunosorbent assay (ELISA) using Pharmingen's OPTEIA kit (Pharmingen, San Diego, USA) as described (Quintana et al., 2002). When needed, cytokine levels are expressed as percentage of cytokine inhibition relative to cytokine levels when no peptide is present. Otherwise, the cytokines are shown as pg/ml. The lower limits of detection for the experiments described in this paper were 15 pg/ml for IL-10 and IFNγ. Cytokine amounts were calculated based on calibration curves constructed using recombinant cytokines as standards.
Rats were injected with FP, a control peptide (V2E or IFFA) or PBS in the presence of Mt and IFA. Twenty six days later, LNC were collected and incubated ex vivo with FP, V2E, IFFA, or PBS, respectively, and their IFN-γ secretion level was determined. […] LNC (incubated with PBS). […] Thus, the immunosuppressive effect of FP is sequence and structure specific.

gp41 = gp41 (Human immunodeficiency virus type 1 group M subtype B, UniProt P04578); details: effect of incorporation of D amino acids; cited from earlier work
Sequence of gp41 (P04578 512-856): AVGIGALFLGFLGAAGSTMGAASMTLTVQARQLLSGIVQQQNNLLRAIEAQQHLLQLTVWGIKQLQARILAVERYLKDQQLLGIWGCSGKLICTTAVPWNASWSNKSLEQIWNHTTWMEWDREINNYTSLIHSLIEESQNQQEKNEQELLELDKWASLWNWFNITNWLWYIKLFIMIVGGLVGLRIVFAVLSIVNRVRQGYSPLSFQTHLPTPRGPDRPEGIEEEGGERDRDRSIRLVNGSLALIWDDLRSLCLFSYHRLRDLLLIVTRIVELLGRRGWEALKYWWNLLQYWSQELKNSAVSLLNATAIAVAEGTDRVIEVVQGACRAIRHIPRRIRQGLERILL

lymph node cells (LNC) [3] = test: T-cell proliferation of LNC from Mt immunized rats ([methyl-3H]-thymidine incorporation); assay type: cell-based; details: rat LNC, PPD 25 μg/ml
Experimental: T-cell proliferation. T-cell proliferation assays were performed using either lymph node cells (LNC) or the A2b T cell line, which reacts with the Mt176-90 peptide. Popliteal and inguinal LNC were removed 26 days after the injection of Mt in incomplete Freund's adjuvant (IFA), when strong T cell responses to PPD and Mt176-90 are detectable (Quintana et al., 2002). LNC were cultured at a concentration of 2×10^5 cells per well; 5×10^4 A2b T cells were stimulated in the presence of irradiated 5×10^5 thymic antigen presenting cells (APC) per well, prepared as previously described (van Eden et al., 1985). The cells were plated in quadruplicates in 200 μl round bottom microtiter wells (Costar Corp., Cambridge, USA), with or without antigen, in the presence of various concentrations of the peptides under study. For some experiments, the cells were activated with immobilized anti-CD3 antibodies or PMA/ionomycin as described (Wang et al., 2002). Cultures were incubated for 72 hr at 37° C. in a humidified atmosphere of 7.5% CO2. T-cell responses were detected by the incorporation of [methyl-3H]-thymidine (Amersham, Buckinghamshire, UK; 1 μCi/well), added during the last 18 hr of incubation. The results of T cell proliferation experiments are shown as the % of inhibition of the T cell proliferation triggered by the antigenin the absence of HIV or control peptides. […]

Balb/c mice = test: DTH response to oxazolone, dermal treatment; assay type: in vivo; details: 100 μg in 40 μl DMSO on the ear one hour after challenge, measured 24 h after challenge
Experimental: In other experiments, DTH response to oxazolone in the presence of FP and IFFA was measured. Female Balb/c mice (5 mice per group) were sensitized to the shaved abdominal skin with 100 microliter of 2% oxazolone dissolved in acetone/olive oil (4:1 vol/vol) applied topically, and 5 days later challenged with 20 microliter of 0.5% oxazolone in acetone/olive oil, 10 microliter administered to each side of the ear. One hour after stimulation, FP, IFFA (100 μg in 40 μl DMSO) or DMSO were administered to each side of the ear. A constant area of the ear was measured immediately before challenge and 24 h after challenge.

Compound: CC[C@H](C)[C@H](NC(=O)[C@H](CS)NC(=O)[C@H](CCCNC(=N)N)NC(=O)[C@H](CC(C)C)NC(=O)[C@H](CC(C)C)NC(=O)[C@H](C)NC(=O)[C@H](CS)NC(=O)CNC(=O)CNC(=O)CNC(=O)[C@H](CC(C)C)NC(=O)[C@@H](N)C(C)C)C(=O)N1CCC[C@H]1C(=O)N[C@@H](C)C(=O)N[C@@H](CC(C)C)C(=O)N[C@@H](CC(=O)O)C(=O)N[C@@H](CO)C(=O)N[C@@H](CC(C)C)C(=O)N[C@H](C(=O)N1CCC[C@H]1C(=O)N[C@@H](C)C(=O)N[C@@H](CC(N)=O)C(=O)N[C@@H](CCC(=O)O)C(=O)N[C@@H](CC(=O)O)C(=O)O)[C@@H](C)O [p277, reference compound] (H-VLGGGCALLRCIPALDSLTPANED-OH)
- survival of cells in culture (lymph node cells (LNC) [1]): the same survival in culture

Compound: GALFLGFLG (Peptides derived of HIV-1 gp41) [FP5-13]
- inhibition of antigen-specific T cell proliferation (lymph node cells (LNC) [2]): inhibit antigen-specific T cell proliferation

Compound: CC[C@H](C)[C@H](NC(=O)CNC(=O)[C@H](CCC(=O)O)NC(=O)[C@H](C)N)C(=O)NCC(=O)N[C@@H](C)C(=O)N[C@@H](CC(C)C)C(=O)N[C@@H](Cc1ccccc1)C(=O)N[C@@H](CC(C)C)C(=O)NCC(=O)N[C@@H](Cc1ccccc1)C(=O)N[C@@H](CC(C)C)C(=O)NCC(=O)N[C@@H](C)C(=O)N[C@@H](C)C(=O)NCC(=O)N[C@@H](CO)C(=O)N[C@H](C(=O)N[C@@H](CCSC)C(=O)NCC(=O)N[C@@H](C)C(=O)N[C@@H](CCCNC(=N)N)C(=O)N[C@@H](CO)C(=O)N[C@@H](CCSC)C(=O)N[C@H](C(=O)N[C@@H](CC(C)C)C(=O)N[C@H](C(=O)N[C@H](C(=O)N[C@@H](CCC(N)=O)C(=O)N[C@@H](C)C(=O)N[C@@H](CCCNC(=N)N)C(=O)N[C@@H](CCC(N)=O)C(=O)N[C@@H](CC(C)C)C(=O)O)C(C)C)[C@@H](C)O)[C@@H](C)O)[C@@H](C)O [V2E]
- survival of cells in culture (lymph node cells (LNC) [1]): the same survival in culture

Compound: CC[C@H](C)[C@H](NC(=O)CNC(=O)[C@@H](NC(=O)[C@H](C)N)C(C)C)C(=O)NCC(=O)N[C@@H](C)C(=O)N[C@@H](CC(C)C)C(=O)N[C@@H](Cc1ccccc1)C(=O)N[C@@H](CC(C)C)C(=O)NCC(=O)N[C@@H](Cc1ccccc1)C(=O)N[C@@H](CC(C)C)C(=O)NCC(=O)N[C@@H](C)C(=O)N[C@@H](C)C(=O)NCC(=O)N[C@@H](CO)C(=O)N[C@H](C(=O)N[C@@H](CCSC)C(=O)NCC(=O)N[C@@H](C)C(=O)N[C@@H](CCCNC(=N)N)C(=O)N[C@@H](CO)C(=O)N[C@@H](CCSC)C(=O)N[C@H](C(=O)N[C@@H](CC(C)C)C(=O)N[C@H](C(=O)N[C@H](C(=O)N[C@@H](CCC(N)=O)C(=O)N[C@@H](C)C(=O)N[C@@H](CCCNC(=N)N)C(=O)N[C@@H](CCC(N)=O)C(=O)N[C@@H](CC(C)C)C(=O)O)C(C)C)[C@@H](C)O)[C@@H](C)O)[C@@H](C)O [FP]
- survival of cells in culture (lymph node cells (LNC) [1]): the same survival in culture

Compound: AVGIGALF (Peptides derived of HIV-1 gp41) [FP1-8]
- inhibition of antigen-specific T cell proliferation (lymph node cells (LNC) [2]): inhibit antigen-specific T cell proliferation

Compound: AVGIGALFLGFLGAAGSTMGARSMTLTVQARQL [IFFA]
- arthritis, clinical score (Lewis rats): milder arthritis
- ex vivo activation relative to FP (LNC from injected rats; LNC collected 26 days after injection): about ten fold more than FP
- ex vivo activation (IFN-γ secretion) of LNC by the injected peptide (LNC from injected rats; LNC collected 26 days after injection with Mt and IFA): highly reactive to IFFA ex vivo
- ability to inhibit gp41-mediated membrane fusion (gp41): does not affect its ability to inhibit gp41-mediated membrane fusion
- inhibition of antigen-specific T cell proliferation (lymph node cells (LNC) [3]): inhibit antigen-specific T cell proliferation
- DTH reaction to oxazolone (Balb/c mice): inhibited the DTH reaction
